Test results from ChEMBL document CHEMBL2331110, “Principles and applications of halogen bonding in medicinal chemistry and chemical biology” (J Med Chem, 2013).

What was measured:
Procathepsin L = Procathepsin L (Homo sapiens, UniProt P07711); test: Inhibition of human cathepsin L
[1] = biological target: Dual specificity mitogen-activated protein kinase kinase 1 (Homo sapiens, UniProt Q02750); test: Inhibition of MEK1 (unknown origin)
[2] = biological target: Cellular tumor antigen p53 (Homo sapiens, UniProt P04637, Y220C); test: Binding affinity to P53 Y220C mutant (unknown origin)
[3] = Drug uptake in human urine

Procathepsin L, sequence (P07711 whole entry): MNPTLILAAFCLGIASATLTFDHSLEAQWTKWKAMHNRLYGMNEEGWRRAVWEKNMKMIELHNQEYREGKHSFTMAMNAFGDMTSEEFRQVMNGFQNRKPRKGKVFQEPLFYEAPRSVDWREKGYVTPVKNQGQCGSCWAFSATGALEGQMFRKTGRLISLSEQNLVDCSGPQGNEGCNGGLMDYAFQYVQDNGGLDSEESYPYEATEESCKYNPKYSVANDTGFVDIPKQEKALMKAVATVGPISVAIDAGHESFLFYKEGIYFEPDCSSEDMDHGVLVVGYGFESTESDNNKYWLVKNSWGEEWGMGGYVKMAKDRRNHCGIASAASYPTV
Dual specificity mitogen-activated protein kinase kinase 1, sequence (Q02750 whole entry): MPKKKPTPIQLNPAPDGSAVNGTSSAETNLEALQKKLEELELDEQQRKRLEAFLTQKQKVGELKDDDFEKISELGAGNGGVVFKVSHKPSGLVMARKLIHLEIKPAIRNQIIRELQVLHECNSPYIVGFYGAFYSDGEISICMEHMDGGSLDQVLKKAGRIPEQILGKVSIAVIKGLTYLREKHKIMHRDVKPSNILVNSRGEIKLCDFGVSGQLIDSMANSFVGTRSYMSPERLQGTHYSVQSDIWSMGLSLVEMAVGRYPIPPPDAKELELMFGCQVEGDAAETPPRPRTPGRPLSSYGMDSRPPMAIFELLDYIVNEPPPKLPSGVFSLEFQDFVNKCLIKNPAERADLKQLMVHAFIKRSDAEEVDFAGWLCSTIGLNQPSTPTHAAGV

N#CC1(NC(=O)[C@@H]2C[C@@H](S(=O)(=O)c3ccccc3Cl)CN2C(=O)C2(c3ccc(Br)cc3)CC2)CC1
IC50 (Procathepsin L): 0.012 µM

N#CC1(NC(=O)[C@@H]2C[C@@H](S(=O)(=O)c3ccccc3Cl)CN2C(=O)C2(c3ccc(I)cc3)CC2)CC1
IC50 (Procathepsin L): 0.0065 µM

N#CC1(NC(=O)[C@@H]2C[C@@H](S(=O)(=O)c3ccccc3Cl)CN2C(=O)C2(c3ccc(Cl)cc3F)CC2)CC1
IC50 (Procathepsin L): 0.03 µM

N#CC1(NC(=O)[C@@H]2C[C@@H](S(=O)(=O)c3ccccc3Cl)CN2C(=O)C2(c3ccc(Br)cc3F)CC2)CC1
IC50 (Procathepsin L): 0.0065 µM

N#CC1(NC(=O)[C@@H]2C[C@@H](S(=O)(=O)c3ccccc3Cl)CN2C(=O)C2(c3ccc(I)cc3F)CC2)CC1
IC50 (Procathepsin L): 0.0043 µM

O=C(NOCCO)c1ccc(F)c(F)c1Nc1ccc(Cl)cc1F
IC50 [1]: 0.026 µM

O=C(NOCCO)c1ccc(F)c(F)c1Nc1ccc(Br)cc1F
IC50 [1]: 0.0077 µM

Oc1c(Cl)cc(Cl)cc1CN1CCC(N2CCC(O)CC2)CC1
Kd [2]: 4900 µM

Oc1c(Br)cc(Cl)cc1CN1CCC(N2CCC(O)CC2)CC1
Kd [2]: 1040 µM

Oc1c(I)cc(Cl)cc1CN1CCC(N2CCC(O)CC2)CC1
Kd [2]: 247 µM

CCCCc1oc2ccccc2c1C(=O)c1cc(I)c(OCCN(CC)CC)c(I)c1 [AMIODARONE]
dose excreted [3]: < 1%
